According to US10222370B2, “Screening assay for choice of prebiotic to prevent/treat gastrointestinal and systemic diseases” (Rush University Medical Center, priority 2014, dated 2019):

Key:
Format in all cases: cell-based, human
[1] = system: T84 monolayers co-cultured with CD3/28-activated PBMC; experiment: T84/PBMC co-culture, barrier integrity by transepithelial electrical resistance (TER); settings: apical exposure, 24 h and 48 h, vs medium control
Description: (§1) The T84 cells are grown in DMEM/F-12 (1:1) supplemented with GlutaMAX®, 10% fetal bovine serum and […] penicillin/streptomycin. (T84 cells (human colorectal carcinoma cell line, ATCC® CCL-248™, Manassas, Va., USA). T84 cells were seeded in 12-well transwell insert filters (Coming Inc., NY, USA) and cultured in T84 cell medium for 3-4 weeks till co-culture with PBMC. Transepithelial electrical resistance (TER) was measured during culture, which generally increases to >1500 Ω×cm^2 and becomes stable after 3-4 weeks of culture. When TER was ≥2000 Ω×cm^2, T84 monolayers 14 were co-cultured with 1.5×10^6 PBMC 16 in the basolateral chamber.
(§2) The PBMC 16 for use in the co-cultures are isolated from 20 mL fresh blood from healthy controls (n=6) and subjects with food allergy (n=8) (Table 1). The average age of healthy controls was 36 (range 24-54) vs. 51 (range 26-74) for food allergic subjects (P>0.05). PBMC were isolated by density gradient centrifugation using lymphocyte separation medium according to manufacturer's protocol (Cellgro, Mediatec, Inc., Manassas, Va., USA). PBMC were collected in RPMI1640 supplemented with L-glutamine (Gibco), 2.5% fetal bovine serum, 1% penicillin/streptomycin and 1% sodium pyruvate (Sigma, St. Louis, Mo., USA) (PBMC medium) at 1×10^6 cell/mL.
(§3) T84/PBMC co-cultures were maintained in PBMC medium. PBMC were stimulated using CD3 and CD28 antibodies (clone OKT3 and CD28.2, 0.2 μg/mL; eBioscience, San Diego, Calif., USA) and simultaneously IEC were stimulated apically with Pam3CSK4, LPS or type C CpG oligonucleotide M362 (Invivogen, San Diego, Calif., USA) as previously described. Cultures were maintained at 37° C./5% CO2 for indicated time points.
The barrier integrity of T84 monolayers was assessed by measuring the TER and paracellular permeability to 4 kDa FITC-dextran. In short, TER was measured using a dual electrode system designed for cell culture insert analysis (EVOM; World Precision Instruments, Sarasota, Fla.) prior to co-culture and at indicated time points during co-culture. Data is reported as percentage of the initial TER value measured before co-culture. For assessment of permeability, T84 monolayers were separated from PBMC and cultured in PBMC medium for 1 h. The monolayers were then apically exposed to 1 mg/mL 4 kDa FITC-dextran (Sigma) and basolateral supernatants were collected after 60 min. FITC-dextran was measured at excitation wavelength 485 nm and emission wavelength 520 nm. The 4 kDa FITC-dextran flux was expressed as pmol/(h×cm^2).
In some experiments, PBMC are stimulated using antibodies against CD3 and CD28 and T84 cell monolayers were simultaneously exposed to synthetic TLR ligands or fermentation product 12 (co-culture of stool samples without or with different prebiotics). SCFA content (acetate, propionate and butyrate) in the fermentation products (“Fermenta”) 12 was analyzed by HPLC. TER was measured at t=0 h, t=4 h, t=18 h and t=24 h to monitor changes in the barrier integrity of the T84 monolayers. Non-limiting example of prebiotics include commercially available inulin and fructose oligosaccharides (FOS) that promote production of Butyrate by intestinal bacteria, galactose oligosaccharides (GOS) that promote growth of bifidobacteria in the intestine or prebiotics like resistant starch, corn arbionoxylan that promotes propionate. Other prebiotics may also be used.

[2] = system: T84 monolayers co-cultured with CD3/28-activated PBMC; experiment: T84/PBMC co-culture, paracellular permeability to 4 kDa FITC-dextran; settings: PBMC from healthy controls; 48 h co-culture; vs medium control
Description: as §1, §2
T84/PBMC co-cultures were maintained in PBMC medium. […]
The barrier integrity of T84 monolayers was assessed by measuring the TER and paracellular permeability to 4 kDa FITC-dextran. In short, TER was measured using a dual electrode system designed for cell culture insert analysis (EVOM; World Precision Instruments, Sarasota, Fla.) prior to co-culture and at indicated time points during co-culture. Data is reported as percentage of the initial TER value measured before co-culture. […] FITC-dextran was measured at excitation wavelength 485 nm and emission wavelength 520 nm. The 4 kDa FITC-dextran flux was expressed as pmol/(h×cm^2).

PBMC = experiment: Cytokine production by CD3/28-activated PBMC in absence of T84 cells (ELISA); settings: for IFN-γ / IL-6 / IL-8 / IL-10 / IL-13 / TNF-α: PBMC in absence of T84 cells, 24 h, mean ± SEM; for IL-10/IL-13 ratio: absence of T84 cells
Description: as §2, §3
(§4) Cytokine levels were measured by ELISA. IL-6, IL-8, IL-10, IL-13, IFN-γ and TNF-α were measured using the Ready-Set-Go!® ELISA kit from eBioscience according to manufacturer's protocol (eBioscience, Inc., San Diego, Calif., USA).
(§5) To evaluate whether epithelial TLR ligation modulates cytokine production by the PBMC, basolateral supernatants were collected 24 h after co-culture. Exposure of CD3/28-activated PBMC in the absence of IEC to TLR ligands served as a control to evaluate the contribution of IEC in modulating the cytokine production by PBMC. First we evaluated the production of IFN-γ and IL-13 as a reflection of a Th1 and Th2 type effector response (Table 3). No significant changes in the production of IFN-γ or IL-13 were observed, though IFN-γ production by the PBMC from food allergic subjects tended to be lower in T84/PBMC co-cultures (P=0.093). […] This was not observed when PBMC were stimulated with CpG DNA in absence of T84 cells (FIG. 7B).

T84/PBMC co-cultures = experiment: Cytokine production in T84/PBMC co-cultures with apical TLR ligands (ELISA); settings: T84/PBMC, 24 h, mean ± SEM
Description: as §1, §2, §3, §4, §5

[3] = PBMC from food allergic subjects

Row | Substance | TER of T84 monolayers [1, 3] | TER of T84 monolayers ([1]; PBMC from healthy controls) | permeability of T84 monolayers to 4 kDa FITC-dextran [2] | IFN-γ (PBMC; FA) [pg/mL] | IL-6 (PBMC; FA) [pg/mL] | IL-8 (PBMC; FA) [pg/mL] | IL-10 (PBMC; FA) [pg/mL] | IL-13 (PBMC; FA) [pg/mL] | TNF-α (PBMC; FA) | IFN-γ (PBMC; HC) [pg/mL] | IL-6 (PBMC; HC) [pg/mL] | IL-8 (PBMC; HC) [pg/mL] | IL-10 (PBMC; HC) [pg/mL] | IL-13 (PBMC; HC) [pg/mL] | TNF-α (PBMC; HC) [pg/mL] | IL-6 (T84/PBMC co-cultures; FA (food allergy) PBMC) [pg/mL] | IFN-γ (T84/PBMC co-cultures; FA PBMC) [pg/mL] | IL-8 (T84/PBMC co-cultures; FA PBMC) [pg/mL] | IL-10 (T84/PBMC co-cultures; FA PBMC) [pg/mL] | IL-13 (T84/PBMC co-cultures; FA PBMC) [pg/mL] | also measured
1 | LPS | did not affect | did not affect | increased the permeability | 2188 ± 908 | 9909 ± 2073 | 35682 ± 4770 | 586 ± 159.4 | 34.0 ± 10.7 | 945.4 ± 294 pg/mL | 6070 ± 2282 | 12399 ± 2174 | 43034 ± 2960 | 545.4 ± 134.7 | 28.3 ± 8.7 | 2607 ± 1165 | 7410 ± 2112 | 4390 ± 1700 | 17103 ± 4334 | 777.6 ± 163.2 | 33.8 ± 11.0 | IL-10/IL-13 ratio (PBMC; [3]): increased; IL-10/IL-13 ratio (PBMC; PBMC from healthy controls): enhanced; TNF-α (T84/PBMC co-cultures; FA PBMC): 2403 ± 516 pg/mL; IL-6 (T84/PBMC co-cultures; HC (healthy control) PBMC): 9040 ± 2424 pg/mL; IFN-γ (T84/PBMC co-cultures; HC PBMC): 10392 ± 2967 pg/mL; IL-8 (T84/PBMC co-cultures; HC PBMC): 23124 ± 5683 pg/mL; IL-10 (T84/PBMC co-cultures; HC PBMC): 632.7 ± 125.1 pg/mL; IL-13 (T84/PBMC co-cultures; HC PBMC): 31.3 ± 9.1 pg/mL; TNF-α (T84/PBMC co-cultures; HC PBMC): 2928 ± 712 pg/mL
2 | Pam3CSK4 | did not affect | did not affect | increased the permeability | 2824 ± 1163 | 8073 ± 2055 | 32940 ± 4869 | 422.8 ± 98.6 | 59.4 ± 15.2 | 979.1 ± 244^ pg/mL | 5663 ± 1768 | 9472 ± 2153 | 43737 ± 2856 | 254.7 ± 135.4 | 59.2 ± 17.0 | 2206 ± 1155 | 5968 ± 1324 | 6533 ± 2125 | 16854 ± 4954 | 853.3 ± 212.9 | 40.8 ± 12.1 | TNF-α (T84/PBMC co-cultures; FA PBMC): 2251 ± 534 pg/mL; IL-6 (T84/PBMC co-cultures; HC (healthy control) PBMC): 7209 ± 1531 pg/mL; IFN-γ (T84/PBMC co-cultures; HC PBMC): 8614 ± 2455 pg/mL; IL-8 (T84/PBMC co-cultures; HC PBMC): 23052 ± 5527 pg/mL; IL-10 (T84/PBMC co-cultures; HC PBMC): 581.1 ± 110.7 pg/mL; IL-13 (T84/PBMC co-cultures; HC PBMC): 37.8 ± 9.2 pg/mL; TNF-α (T84/PBMC co-cultures; HC PBMC): 3073 ± 509 pg/mL
